Data as given in patent publication US11180504B2 (ORCHID PHARMA LTD., priority 2016, dated 2021).
≈ marks a conversion by molar mass, not a printed value. Read-outs that look alike come from different tables or passages of the source.

Tests used:
[1] = tested on: carbapenem sensitive Escherichia coli; assay: MIC by broth micro-dilution (CLSI), carbapenem sensitive E. coli; type: cell-based
[2] = tested on: methicillin-sensitive Staphylococcus aureus; assay: MIC by broth micro-dilution (CLSI), methicillin-sensitive S. aureus; type: cell-based; conditions: MSSA S. aureus ATCC29213
[3] = tested on: carbapenem sensitive Pseudomonas aeruginosa; assay: MIC by broth micro-dilution (CLSI), carbapenem sensitive P. aeruginosa; type: cell-based
[4] = tested on: carbapenemase producing K. pneumoniae; assay: MIC by broth micro-dilution (CLSI), carbapenemase producing K. pneumoniae; type: cell-based, Klebsiella pneumoniae
[5] = Escherichia coli, ATCC25922, ESBL −ve E. coli ATCC25922, read-out: MIC
[6] = Staphylococcus aureus, ATCC 29213 / MSSA, read-out: MIC
[7] = Pseudomonas aeruginosa, ATCC27853, Meropenem susceptible P. aeruginosa ATCC27853, read-out: MIC
[8] = Klebsiella pneumoniae, ATCCBAA1705, KPC-2 K. pneumoniae ATCC BAA-1705, read-out: MIC
[9] = Meropenem susceptible P. aeruginosa ATCC27853
[10] = KPC-2 K. pneumoniae ATCC BAA-1705

MIC [1, 5] [µg/mL]	MIC [2, 6] [µg/mL]	MIC [3, 7] [µg/mL]	MIC [4, 8] [µg/mL]	MIC ([1]; ESBL −ve E. coli ATCC25922) [µg/mL]	MIC [2] [µg/mL]	MIC [3, 9] [µg/mL]	MIC [4, 10] [µg/mL]	SMILES
				0.125 (≈ 0.218 µM)	1 (≈ 1.74 µM)	2 (≈ 3.49 µM)	1 (≈ 1.74 µM)	C[C@@H](NC(=O)Cn1cnnn1)[C@H]1C(=O)N2C(C(=O)O)=C(S[C@@H]3CN[C@H](C(=O)N4CC5CCCNC5C4)C3)[C@H](C)[C@H]12 (single isomer, unassigned) [Example 459]
0.5 (≈ 0.893 µM)	4 (≈ 7.15 µM)	4 (≈ 7.15 µM)	2 (≈ 3.57 µM)					C[C@@H](NC(=O)Cn1cnnn1)[C@H]1C(=O)N2C(C(=O)O)=C(S[C@@H]3CN[C@H](C(=O)N4CCC5CNCC54)C3)[C@H](C)[C@H]12 (single isomer, unassigned) [Example 466]
				0.5 (≈ 0.872 µM)	4 (≈ 6.97 µM)	4 (≈ 6.97 µM)	2 (≈ 3.49 µM)	C[C@@H](NC(=O)Cn1cnnn1)[C@H]1C(=O)N2C(C(=O)O)=C(S[C@@H]3CN[C@H](C(=O)N4CCC5NCCCC54)C3)[C@H](C)[C@H]12 (single isomer, unassigned) [Example 469]
				0.25 (≈ 0.453 µM)	8 (≈ 14.5 µM)	16 (≈ 29 µM)	2 (≈ 3.63 µM)	C[C@@H](NC(=O)Cn1cnnn1)[C@H]1C(=O)N2C(C(=O)O)=C(S[C@@H]3CN[C@H](C(=O)N4CC(N)C(F)C4)C3)[C@H](C)[C@H]12 (single isomer, unassigned) [Example 479]
0.25 (≈ 0.425 µM)	4 (≈ 6.81 µM)	4 (≈ 6.81 µM)	4 (≈ 6.81 µM)					C[C@@H](NC(=O)Cn1cnnn1)[C@H]1C(=O)N2C(C(=O)O)=C(S[C@@H]3CN[C@H](C(=O)N4CCC5NCCCC5C4)C3)[C@H](C)[C@H]12 (single isomer, unassigned) [Example 482]
0.25 (≈ 0.436 µM)	4 (≈ 6.97 µM)		1 (≈ 1.74 µM)			2 (≈ 3.49 µM)		C[C@@H](NC(=O)Cn1cnnn1)[C@H]1C(=O)N2C(C(=O)O)=C(S[C@@H]3CN[C@H](C(=O)N4CCC5(CCNC5)C4)C3)[C@H](C)[C@H]12 (single isomer, unassigned) [Example 488]
2 (≈ 3.74 µM)	32 (≈ 59.8 µM)	32 (≈ 59.8 µM)	2 (≈ 3.74 µM)					CNCC(=O)N[C@H](C)[C@H]1C(=O)N2C(C(=O)O)=C(S[C@@H]3CN[C@H](C(=O)N4CCC5CNCCC54)C3)[C@H](C)[C@H]12 (single isomer, unassigned) [Example 490]
				0.125 (≈ 0.218 µM)	2 (≈ 3.49 µM)	0.5 (≈ 0.872 µM)	1 (≈ 1.74 µM)	C[C@@H](NC(=O)Cn1cnnn1)[C@H]1C(=O)N2C(C(=O)O)=C(S[C@@H]3CN[C@H](C(=O)N4CCC5(CCNC5)C4)C3)[C@H](C)[C@H]12 (single isomer, unassigned) [Example 493]
0.25 (≈ 0.444 µM)	2 (≈ 3.55 µM)	2 (≈ 3.55 µM)	2 (≈ 3.55 µM)					C[C@@H](NC(=O)Cn1cnnn1)[C@H]1C(=O)N2C(C(=O)O)=C(S[C@@H]3CN[C@H](C(=O)N4CCC(N)(CO)C4)C3)[C@H](C)[C@H]12 (single isomer, unassigned) [Example 496]
0.5 (≈ 0.773 µM)	2 (≈ 3.09 µM)	2 (≈ 3.09 µM)					0.5 (≈ 0.773 µM)	C[C@@H](NC(=O)Cn1cnnn1)[C@H]1C(=O)N2C(C(=O)O)=C(S[C@@H]3CN[C@H](C(=O)N4CCC5CN(C[C@@H](O)CN)CCC54)C3)[C@H](C)[C@H]12 (single isomer, unassigned) [Example 521]
0.125 (≈ 0.218 µM)	4 (≈ 6.97 µM)	1 (≈ 1.74 µM)	1 (≈ 1.74 µM)					C[C@@H](NC(=O)Cn1cnnn1)[C@H]1C(=O)N2C(C(=O)O)=C(S[C@@H]3CN[C@H](C(=O)N4CC5CCNCC5C4)C3)[C@H](C)[C@H]12 (single isomer, unassigned) [Example 527]
				0.25 (≈ 0.424 µM)	4 (≈ 6.78 µM)		2 (≈ 3.39 µM)	C[C@@H](NC(=O)Cn1cnnn1)[C@H]1C(=O)N2C(C(=O)O)=C(S[C@@H]3CN[C@H](C(=O)N4CC5CC(CO)NC5C4)C3)[C@H](C)[C@H]12 (single isomer, unassigned) [Example 552]
				0.5 (≈ 0.887 µM)	4 (≈ 7.1 µM)		2 (≈ 3.55 µM)	C[C@@H](NC(=O)Cn1cnnn1)[C@H]1C(=O)N2C(C(=O)O)=C(S[C@@H]3CN[C@H](C(=O)N4CCOC(CN)C4)C3)[C@H](C)[C@H]12 (stereo in doubt) [Example 461, (4R,5S,6R)-6-((R)-1-(2-(1H-tetrazol-1-yl)acetamido)ethyl)-3-((3S,5S)-5-((S)-2-(aminomethyl)morpholine-4-carbonyl)pyrrolidin-3-ylthio)-4-methyl-7-oxo-1-azabicyclo[3.2.0]hept-2-ene-2-carboxylic acid]

Further lines, the molecule ahead of its results:

SMILES	MIC [1, 5] [µg/mL]	MIC [2, 6] [µg/mL]	MIC [3, 7] [µg/mL]	MIC [4, 8] [µg/mL]	MIC ([1]; ESBL −ve E. coli ATCC25922) [µg/mL]	MIC [2] [µg/mL]	MIC [3, 9] [µg/mL]	MIC [4, 10] [µg/mL]
C[C@@H](NC(=O)Cn1cnnn1)[C@H]1C(=O)N2C(C(=O)O)=C(S[C@@H]3CN[C@H](C(=O)N4CCC(N)C(F)C4)C3)[C@H](C)[C@H]12 (single isomer, unassigned) [Example 425]	0.25 (≈ 0.442 µM)	4 (≈ 7.07 µM)	2 (≈ 3.54 µM)	2 (≈ 3.54 µM)				
C[C@@H](NC(=O)Cn1cnnn1)[C@H]1C(=O)N2C(C(=O)O)=C(S[C@@H]3CN[C@H](C(=O)N4CCC5CNCCC54)C3)[C@H](C)[C@H]12 (single isomer, unassigned) [Example 438]	0.25 (≈ 0.436 µM)	2 (≈ 3.49 µM)	2 (≈ 3.49 µM)	1 (≈ 1.74 µM)				
C[C@@H](NC(=O)Cn1cnnn1)[C@H]1C(=O)N2C(C(=O)O)=C(S[C@@H]3CN[C@H](C(=O)N4CC5CCCNC5C4)C3)[C@H](C)[C@H]12 (single isomer, unassigned) [Example 452]	0.25 (≈ 0.436 µM)	2 (≈ 3.49 µM)	2 (≈ 3.49 µM)	1 (≈ 1.74 µM)				
C[C@@H](NC(=O)Cn1cnnn1)[C@H]1C(=O)N2C(C(=O)O)=C(S[C@@H]3CN[C@H](C(=O)N4CCC5CNCC54)C3)[C@H](C)[C@H]12 (single isomer, unassigned) [Example 467]					1 (≈ 1.79 µM)	8 (≈ 14.3 µM)	8 (≈ 14.3 µM)	2 (≈ 3.57 µM)
C[C@@H](NC(=O)Cn1cnnn1)[C@H]1C(=O)N2C(C(=O)O)=C(S[C@@H]3CN[C@H](C(=O)N4CCC5NCCCC54)C3)[C@H](C)[C@H]12 (single isomer, unassigned) [Example 468]	0.5 (≈ 0.872 µM)	4 (≈ 6.97 µM)	8 (≈ 13.9 µM)	2 (≈ 3.49 µM)				
C[C@@H](NC(=O)Cn1cnnn1)[C@H]1C(=O)N2C(C(=O)O)=C(S[C@@H]3CN[C@H](C(=O)N4CC(N)C(F)C4)C3)[C@H](C)[C@H]12 (single isomer, unassigned) [Example 478]	0.125 (≈ 0.227 µM)	8 (≈ 14.5 µM)	8 (≈ 14.5 µM)	1 (≈ 1.81 µM)				
C[C@@H](NC(=O)Cn1cnnn1)[C@H]1C(=O)N2C(C(=O)O)=C(S[C@@H]3CN[C@H](C(=O)N4CCC(N)(CO)C4)C3)[C@H](C)[C@H]12 (single isomer, unassigned) [Example 497]					0.25 (≈ 0.444 µM)	4 (≈ 7.1 µM)	4 (≈ 7.1 µM)	2 (≈ 3.55 µM)
C[C@@H](NC(=O)Cn1cnnn1)[C@H]1C(=O)N2C(C(=O)O)=C(S[C@@H]3CN[C@H](C(=O)N4CCCC45CCCNC5)C3)[C@H](C)[C@H]12 (single isomer, unassigned) [Example 504]					0.5 (≈ 0.851 µM)	2 (≈ 3.4 µM)	32 (≈ 54.4 µM)	4 (≈ 6.81 µM)
C[C@@H](NC(=O)Cn1cnnn1)[C@H]1C(=O)N2C(C(=O)O)=C(S[C@@H]3CN[C@H](C(=O)N4CC(O)C(CN)C4)C3)[C@H](C)[C@H]12 (single isomer, unassigned) [Example 510]	0.25 (≈ 0.444 µM)	4 (≈ 7.1 µM)	1 (≈ 1.77 µM)	4 (≈ 7.1 µM)				
C[C@@H](NC(=O)Cn1cnnn1)[C@H]1C(=O)N2C(C(=O)O)=C(S[C@@H]3CN[C@H](C(=O)N4CC(O)C(CN)C4)C3)[C@H](C)[C@H]12 (single isomer, unassigned) [Example 511]					0.25 (≈ 0.444 µM)	4 (≈ 7.1 µM)	1 (≈ 1.77 µM)	2 (≈ 3.55 µM)
C[C@@H](NC(=O)CN1CCC2CNCCC21)[C@H]1C(=O)N2C(C(=O)O)=C(S[C@@H]3CN[C@H](C(=O)N(C)C)C3)[C@H](C)[C@H]12 (single isomer, unassigned) [Example 519]	2 (≈ 3.64 µM)	16 (≈ 29.2 µM)	> 128	16 (≈ 29.2 µM)				
C[C@@H](NC(=O)Cn1cnnn1)[C@H]1C(=O)N2C(C(=O)O)=C(S[C@@H]3CN[C@H](C(=O)N4CC5CCNCC5C4)C3)[C@H](C)[C@H]12 (single isomer, unassigned) [Example 528]					0.25 (≈ 0.436 µM)	4 (≈ 6.97 µM)	1 (≈ 1.74 µM)	1 (≈ 1.74 µM)
C[C@@H](NC(=O)Cn1cnnn1)[C@H]1C(=O)N2C(C(=O)O)=C(S[C@@H]3CN[C@H](C(=O)N4CC5(CC(N)CO5)C4)C3)[C@H](C)[C@H]12 (single isomer, unassigned) [Example 530]	0.25 (≈ 0.434 µM)	2 (≈ 3.47 µM)	0.5 (≈ 0.869 µM)	1 (≈ 1.74 µM)				
C[C@@H](NS(C)(=O)=O)[C@H]1C(=O)N2C(C(=O)O)=C(S[C@@H]3CN[C@H](C(=O)N(C)C)C3)[C@H](C)[C@H]12 [Example 1, (4R,5S,6S)-3-((3S,5S)-5-(Dimethylcarbamoyl)pyrrolidin-3-ylthio)-4-methyl-6-((R)-1-(methylsulfonamido)ethyl)-7-oxo-1-azabicyclo[3.2.0]hept-2-ene-2-carboxylic acid]	0.25 to 1 (≈ 0.543 to 2.17 µM)	8 to 16 (≈ 17.4 to 34.7 µM)	32 to 64 (≈ 69.5 to 139 µM)					
